# Results as given in PubChem BioAssay (NCI).
#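 Compound exposure: 48 hours, 5 concentrations, 96-well plates. The concentration for full growth arrest is given as TGI.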
# How the values were obtained:
# Assay in all cases: DTP human tumour cell line panel, 48 h
# HS 578T breast = system: HS 578T breast
# DU-145 prostate = system: DU-145 prostate
# 786-0 renal = system: 786-0 renal
# COLO 205 colon = system: COLO 205 colon
# MDA-N = system: MDA-N
# TK-10 renal = system: TK-10 renal
# IGROV1 ovarian = system: IGROV1 ovarian
# NCI-H522 lung = system: NCI-H522 lung
# M14 melanoma = system: M14 melanoma
# SW-620 colon = system: SW-620 colon
# A498 renal = system: A498 renal
# PC-3 prostate = system: PC-3 prostate
# OVCAR-4 ovarian = system: OVCAR-4 ovarian
# MDA-MB-231 breast = system: MDA-MB-231 breast
# UACC-62 melanoma = system: UACC-62 melanoma
# ACHN renal = system: ACHN renal
# U251 CNS = system: U251 CNS
# KM12 colon = system: KM12 colon
# SR leukemia = system: SR leukemia
# SF-295 CNS = system: SF-295 CNS
# UACC-257 melanoma = system: UACC-257 melanoma
# SK-MEL-5 melanoma = system: SK-MEL-5 melanoma
# MOLT-4 leukemia = system: MOLT-4 leukemia
# K-562 leukemia = system: K-562 leukemia
# HT29 colon = system: HT29 colon
# RPMI-8226 leukemia = system: RPMI-8226 leukemia
# SNB-19 CNS = system: SNB-19 CNS
# HCC-2998 colon = system: HCC-2998 colon
# SK-OV-3 ovarian = system: SK-OV-3 ovarian
# MCF7 breast = system: MCF7 breast
# BT-549 breast = system: BT-549 breast
# A549 NSCLC = system: A549 NSCLC
# HCT-15 colon = system: HCT-15 colon
# HOP-62 NSCLC = system: HOP-62 NSCLC
# MDA-MB-435 = system: MDA-MB-435
# SF-539 CNS = system: SF-539 CNS
# T-47D breast = system: T-47D breast
# HL-60(TB) leukemia = system: HL-60(TB) leukemia
# CCRF-CEM leukemia = system: CCRF-CEM leukemia
# NCI/ADR-RES ovarian = system: NCI/ADR-RES ovarian
# RXF 393 renal = system: RXF 393 renal
# UO-31 renal = system: UO-31 renal
# OVCAR-8 ovarian = system: OVCAR-8 ovarian
# SN12C renal = system: SN12C renal
# OVCAR-3 ovarian = system: OVCAR-3 ovarian
# LOX IMVI melanoma = system: LOX IMVI melanoma
# OVCAR-5 ovarian = system: OVCAR-5 ovarian
# SNB-75 CNS = system: SNB-75 CNS
# MALME-3M melanoma = system: MALME-3M melanoma
# EKVX NSCLC = system: EKVX NSCLC
# SF-268 CNS = system: SF-268 CNS
# CAKI-1 renal = system: CAKI-1 renal
# HCT-116 colon = system: HCT-116 colon
# NCI-H23 lung = system: NCI-H23 lung
# SK-MEL-2 melanoma = system: SK-MEL-2 melanoma
# NCI-H226 lung = system: NCI-H226 lung
# NCI-H460 lung = system: NCI-H460 lung
# HOP-92 NSCLC = system: HOP-92 NSCLC
smiles,measurement,setting,value
Cc1cn(C2CC(N=[N+]=[N-])C(CO[Si](C)(C)C(C)(C)C)O2)c(=O)[nH]c1=O (centres undefined),TGI,HS 578T breast,40.1 µM
same,TGI,DU-145 prostate,45.1 µM
same,TGI,786-0 renal,29.1 µM
same,TGI,COLO 205 colon,35.6 µM
same,TGI,MDA-N,34.2 µM
same,TGI,TK-10 renal,30.5 µM
same,TGI,IGROV1 ovarian,37.3 µM
same,TGI,NCI-H522 lung,35.6 µM
same,TGI,M14 melanoma,41.5 µM
same,TGI,SW-620 colon,35.7 µM
same,TGI,A498 renal,30.7 µM
same,TGI,PC-3 prostate,38.9 µM
same,TGI,OVCAR-4 ovarian,28.1 µM
same,TGI,MDA-MB-231 breast,29.5 µM
same,TGI,UACC-62 melanoma,29.8 µM
same,TGI,ACHN renal,48 µM
same,TGI,U251 CNS,33 µM
same,TGI,KM12 colon,32.5 µM
same,TGI,SR leukemia,56.8 µM
same,TGI,SF-295 CNS,34.6 µM
same,TGI,UACC-257 melanoma,42 µM
same,TGI,SK-MEL-5 melanoma,32.4 µM
same,TGI,MOLT-4 leukemia,> 100 µM
same,TGI,K-562 leukemia,47.6 µM
same,TGI,HT29 colon,32.4 µM
same,TGI,RPMI-8226 leukemia,47.1 µM
same,TGI,SNB-19 CNS,38.3 µM
same,TGI,HCC-2998 colon,26.5 µM
same,TGI,SK-OV-3 ovarian,37.1 µM
same,TGI,MCF7 breast,58 µM
same,TGI,BT-549 breast,23.7 µM
same,TGI,A549 NSCLC,87.8 µM
same,TGI,HCT-15 colon,37.9 µM
same,TGI,HOP-62 NSCLC,34.1 µM
same,TGI,MDA-MB-435,38.2 µM
same,TGI,SF-539 CNS,35.6 µM
same,TGI,T-47D breast,75.6 µM
same,TGI,HL-60(TB) leukemia,72.4 µM
same,TGI,CCRF-CEM leukemia,60.9 µM
same,TGI,NCI/ADR-RES ovarian,36 µM
same,TGI,RXF 393 renal,32.3 µM
same,TGI,UO-31 renal,30.7 µM
same,TGI,OVCAR-8 ovarian,37.1 µM
same,TGI,SN12C renal,30.4 µM
same,TGI,OVCAR-3 ovarian,34.9 µM
same,TGI,LOX IMVI melanoma,31.5 µM
same,TGI,OVCAR-5 ovarian,49.1 µM
same,TGI,SNB-75 CNS,42.9 µM
same,TGI,MALME-3M melanoma,28.1 µM
same,TGI,EKVX NSCLC,58.1 µM
same,TGI,SF-268 CNS,45.8 µM
same,TGI,CAKI-1 renal,37.1 µM
same,TGI,HCT-116 colon,29.6 µM
same,TGI,NCI-H23 lung,40.2 µM
same,TGI,SK-MEL-2 melanoma,33.8 µM
same,TGI,NCI-H226 lung,29.6 µM
C#CCOC(=O)c1ccccc1OC(C)=O,TGI,HS 578T breast,> 100 µM
same,TGI,DU-145 prostate,> 100 µM
same,TGI,786-0 renal,> 100 µM
same,TGI,COLO 205 colon,> 100 µM
same,TGI,MDA-N,> 100 µM
same,TGI,TK-10 renal,> 100 µM
same,TGI,IGROV1 ovarian,> 100 µM
same,TGI,NCI-H522 lung,> 100 µM
same,TGI,M14 melanoma,> 100 µM
same,TGI,SW-620 colon,> 100 µM
same,TGI,A498 renal,> 100 µM
same,TGI,PC-3 prostate,> 100 µM
same,TGI,OVCAR-4 ovarian,> 100 µM
same,TGI,MDA-MB-231 breast,> 100 µM
same,TGI,UACC-62 melanoma,> 100 µM
same,TGI,ACHN renal,> 100 µM
same,TGI,U251 CNS,> 100 µM
same,TGI,KM12 colon,> 100 µM
same,TGI,NCI-H460 lung,> 100 µM
same,TGI,SR leukemia,> 100 µM
same,TGI,HOP-92 NSCLC,> 100 µM
same,TGI,SF-295 CNS,> 100 µM
same,TGI,UACC-257 melanoma,> 100 µM
same,TGI,SK-MEL-5 melanoma,> 100 µM
same,TGI,MOLT-4 leukemia,> 100 µM
same,TGI,K-562 leukemia,> 100 µM
same,TGI,RPMI-8226 leukemia,> 100 µM
same,TGI,SNB-19 CNS,> 100 µM
same,TGI,SK-OV-3 ovarian,> 100 µM
same,TGI,MCF7 breast,> 100 µM
same,TGI,BT-549 breast,> 100 µM
same,TGI,HCT-15 colon,> 100 µM
same,TGI,HOP-62 NSCLC,> 100 µM
same,TGI,MDA-MB-435,> 100 µM
same,TGI,SF-539 CNS,> 100 µM
same,TGI,T-47D breast,> 100 µM
same,TGI,HL-60(TB) leukemia,> 100 µM
same,TGI,CCRF-CEM leukemia,> 100 µM
same,TGI,NCI/ADR-RES ovarian,> 100 µM
same,TGI,RXF 393 renal,> 100 µM
same,TGI,UO-31 renal,> 100 µM
same,TGI,OVCAR-8 ovarian,> 100 µM
same,TGI,SN12C renal,> 100 µM
same,TGI,LOX IMVI melanoma,> 100 µM
same,TGI,OVCAR-5 ovarian,> 100 µM
same,TGI,SNB-75 CNS,> 100 µM
same,TGI,EKVX NSCLC,> 100 µM
same,TGI,SF-268 CNS,> 100 µM
same,TGI,CAKI-1 renal,> 100 µM
same,TGI,HCT-116 colon,> 100 µM
same,TGI,NCI-H23 lung,> 100 µM
same,TGI,SK-MEL-2 melanoma,> 100 µM
same,TGI,NCI-H226 lung,> 100 µM
